In US20250163057A1, “DCN-1 MODULATING COMPOUNDS AND METHODS OF USE THEREOF” (Cellarity, Inc., priority 2023, published 2025):
Where two headings read alike, the source gives them in different places.

Columns and labels:
[1] = test system: fetal hemoglobin gene HBG1; experiment: HBG1 Nanostring Assay in CD34+ HSPC erythroid differentiation culture; type: cell-based, human; settings: for EC50: Homo sapiens, 240 h, HBG1 induction, Day10 of erythroid differentiation; for Nanostring Ymax obs (%): relative to a control compound (C1)
In short: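 CD34+ HSPCs were dosed from day −2 (0.1% DMSO) through two-phase erythroid differentiation (EPO, transferrin, SCF, IL-3, insulin; IL-3 removed from day 7) at 37° C, 5% CO2. Day-10 lysates of 100K cells were hybridized at 67° C for 22 h for nCounter counting, normalized to ERCC and housekeeping controls. EC50 and Ymax were derived, with Ymax relative to a control compound.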

[2] = test system: Cullin-3 (CUL3) neddylation; experiment: AlphaLISA assay for Cullin-3 (CUL3) neddylation in TF 1 cells; type: cell-based; settings: Homo sapiens, TF-1, 3 h, 3 hours treatment
In short: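 TF 1 cells in unsupplemented IMDM treated with compound concentrations for 3 h, then lysed. CUL3 neddylation detected by AlphaLISA (biotinylated anti-NEDD8, anti-CUL3 acceptor beads overnight, streptavidin donor beads 1 h); normalized to vehicle (0%) and 1 μM DI-1548 (100%), IC50 from Hill fits.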

DCN1 protein = DCN1 protein (Homo sapiens (Human), UniProt Q96GG9); experiment: Intact Protein MS Analysis with the RapidFire-TOF System (covalent adduct formation); type: binding; settings: MS Emax; 400 nM DCN1, 3 hours at room temperature
In short: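 Tag-cleaved human DCN1 (400 nM) expressed in E. coli, in 25 mM Tris-HCl, 200 mM NaCl, 1 mM DTT, was incubated with 11 compound concentrations for 3 h at room temperature and quenched with 0.2% formic acid. Intact-protein Q-TOF MS with deconvolution detected the compound adduct mass.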

[3] = target: DCN1 (DCUND1) protein PONY domain (Homo sapiens (Human), UniProt Q96GG9); experiment: TR-FRET assay, DCN1 binding with FAM-labeled probe
In short: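 First, the E. coli-derived PONY domain was biotinylated and paired with streptavidin Tb cryptate. Compounds in 0.1% DMSO were then added to DCN1 and FAM-probe (5 nM/20 nM, or 0.31 nM/900 nM total with 800 nM unlabelled) in TritonX, 200 mM NaCl buffer. Finally, TR-FRET ratios were recorded at 1, 5 and 24 hrs.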

[4] = 24 hr after treatment with compound, read-out: TR FRET IC50 24 hr
[5] = TR FRET IC50 1 hr (nM), 1 hr after treatment with compound

Chain of DCN1 protein (Q96GG9 whole entry): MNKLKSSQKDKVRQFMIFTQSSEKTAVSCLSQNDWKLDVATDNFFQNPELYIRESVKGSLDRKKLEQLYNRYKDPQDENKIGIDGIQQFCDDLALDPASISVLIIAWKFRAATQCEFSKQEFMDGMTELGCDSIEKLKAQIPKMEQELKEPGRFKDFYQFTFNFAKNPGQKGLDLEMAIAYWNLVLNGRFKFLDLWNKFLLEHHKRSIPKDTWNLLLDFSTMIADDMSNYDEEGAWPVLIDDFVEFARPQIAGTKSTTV
Chain of DCN1 (DCUND1) protein PONY domain (Q96GG9 60-248): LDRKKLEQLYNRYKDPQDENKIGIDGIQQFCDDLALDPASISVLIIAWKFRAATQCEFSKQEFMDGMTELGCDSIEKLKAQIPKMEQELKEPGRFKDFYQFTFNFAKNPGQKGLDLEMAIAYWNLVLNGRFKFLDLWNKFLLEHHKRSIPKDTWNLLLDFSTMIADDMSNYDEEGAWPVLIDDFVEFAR

Row | Compound | EC50 [1] [nM] | Nanostring Ymax obs (%) [1] | IC50 [2] [nM] | % Adduct Formation (DCN1 protein) | IC50 [3, 4] [nM] | IC50 [3, 5] [nM]
1 | CCN1C(=O)[C@H](NC(=O)c2cccc(C(F)(F)F)c2)[C@H](c2ccc(F)cc2)c2c([C@@H](C)NC#N)nn(-c3ccccc3)c21 [Compound I-13, N-((4R,5R)-3-((R)-1-cyanamidoethyl)-7-ethyl-4-(4-fluorophenyl)-6-oxo-1-phenyl-4,5,6,7-tetrahydro-1H-pyrazolo[3,4-b]pyridin-5-yl)-3-(trifluoromethyl)benzamide] | > 1000 | + (Nanostring Ymax greater than or equal to 0.0 and less than or equal to 50.0) | 100 to 1000 | ++ (MS Emax % adduct formation greater than 30.0 and less than or equal to 80.0) | 1000 to 3000 | 1000 to 3000
2 | CCN1C(=O)[C@H](NC(=O)c2cccc(C(F)(F)F)c2)[C@H](c2ccc(F)cc2)c2c(CN(C)C#N)nn(-c3ccccc3)c21 [Compound I-20] | > 1000 | + (Nanostring Ymax greater than or equal to 0.0 and less than or equal to 50.0) | > 1000 | ++ (MS Emax % adduct formation greater than 30.0 and less than or equal to 80.0) | 1000 to 3000 | 1000 to 3000
3 | C=C(C(=O)O)c1nn(-c2ccccc2)c2c1[C@@H](c1ccc(F)cc1)[C@@H](NC(=O)c1cccc(C(F)(F)F)c1)C(=O)N2CC [Compound I-77, 2-((4R,5R)-7-ethyl-4-(4-fluorophenyl)-6-oxo-1-phenyl-5-(3-(trifluoromethyl)benzamido)-4,5,6,7-tetrahydro-1H-pyrazolo[3,4-b]pyridin-3-yl)acrylic acid] | > 1000 | + (Nanostring Ymax greater than or equal to 0.0 and less than or equal to 50.0) | > 1000 | + (MS Emax % adduct formation greater than or equal to 0.0 and less than or equal to 30.0) | 1000 to 3000 | 1000 to 3000
4 | CCN1C(=O)[C@@H](NC(=O)c2cccc(C(F)(F)F)c2)[C@H](c2ccc(F)cc2)c2c(CNC(=O)/C=C(\C)C(=O)OC)nn(-c3ccccc3)c21 [Compound I-104] | > 1000 | ++ (Nanostring Ymax greater than 50.0 and less than or equal to 100.0) | 100 to 1000 | + (MS Emax % adduct formation greater than or equal to 0.0 and less than or equal to 30.0) | 200 to 1000 | 200 to 1000
5 | C=C(CO)C(=O)NCc1nn(-c2ccccc2)c2c1[C@@H](c1ccc(F)cc1)[C@H](NC(=O)c1cccc(C(F)(F)F)c1)C(=O)N2CC [Compound I-106] | > 1000 | ++ (Nanostring Ymax greater than 50.0 and less than or equal to 100.0) | 100 to 1000 | + (MS Emax % adduct formation greater than or equal to 0.0 and less than or equal to 30.0) | 200 to 1000 | 200 to 1000
6 | CCN1C(=O)[C@H](NC(=O)c2cccc(C(F)(F)F)c2)[C@@H](c2ccc(F)cc2)c2c(CNC(=O)/C(C)=C/C(=O)OC)nn(-c3ccccc3)c21 [Compound I-108] | > 1000 | ++ (Nanostring Ymax greater than 50.0 and less than or equal to 100.0) | ≤ 100 | + (MS Emax % adduct formation greater than or equal to 0.0 and less than or equal to 30.0) | 200 to 1000 | 200 to 1000
7 | CCN1C(=O)[C@@H](NC(=O)c2cccc(C(F)(F)F)c2)[C@@H](c2ccc(F)cc2)c2c(CN(C)C(=O)/C=C/CN(C)C)nn(-c3ccccc3)c21 [Compound I-117] | > 1000 | + (Nanostring Ymax greater than or equal to 0.0 and less than or equal to 50.0) | > 1000 | + (MS Emax % adduct formation greater than or equal to 0.0 and less than or equal to 30.0) | 200 to 1000 | 200 to 1000
